From US20080009573A1, “Labeled tackifiers” (priority 2006, published 2008) come the findings set out here.

As to `C=CCN1C(=O)c2cccc3c(CNCCOC(=O)C4(C)CCCC5(C)C6CCC(C(C)C)=CC6=CCC45)ccc(c23)C1=O` (stereo not shown) [Compound 17, 7-Isopropyl-1,4a-dimethyl-1,2,3,4,4a,4b,5,6,10,10a-decahydro-phenanthrene-1-carboxylic acid 2-[(2-allyl-1,3-dioxo-2,3-dihydro-1H-benzo[de]isoquinolin-6-yl)methylamino]ethyl ester], the melting point was in the range of 64 to 66 °C.
